PubChem BioAssay (NCI)
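Following 48 hours of exposure in 96-well plates, responses at five concentrations were used to interpolate endpoints linearly. GI50 = concentration required for 50% inhibition of growth. TGI denotes the concentration required for complete inhibition of growth.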

Tests used:
Assay in all cases: DTP human tumour cell line panel, 48 h
ACHN renal = system: ACHN renal
DU-145 prostate = system: DU-145 prostate
HL-60(TB) leukemia = system: HL-60(TB) leukemia
M14 melanoma = system: M14 melanoma
MDA-MB-231 breast = system: MDA-MB-231 breast
T-47D breast = system: T-47D breast
UACC-62 melanoma = system: UACC-62 melanoma
SNB-19 CNS = system: SNB-19 CNS

| SMILES | GI50 (ACHN renal) | TGI (ACHN renal) | GI50 (DU-145 prostate) | TGI (DU-145 prostate) | GI50 (HL-60(TB) leukemia) | TGI (HL-60(TB) leukemia) | GI50 (M14 melanoma) | TGI (M14 melanoma) | GI50 (MDA-MB-231 breast) | TGI (MDA-MB-231 breast) | GI50 (T-47D breast) | TGI (T-47D breast) | GI50 (UACC-62 melanoma) | TGI (UACC-62 melanoma) | TGI (SNB-19 CNS) | GI50 (SNB-19 CNS) |
| --- | --- | --- | --- | --- | --- | --- | --- | --- | --- | --- | --- | --- | --- | --- | --- | --- |
| O=C(CC1Sc2ccccc2NC1=O)NNc1ccc(F)cc1 (stereo not given) | 7.07 µM | > 100 µM | 57 µM | > 100 µM | 7.9 µM | > 100 µM | 5.5 µM | > 100 µM | 47.6 µM | > 100 µM | 14.6 µM | > 100 µM | 6.94 µM | > 100 µM | – | – |
| CNC(=O)NCCN1N=C(C)/C(=C\c2ccccc2)CC1=O | – | > 100 µM | – | – | – | > 100 µM | – | > 100 µM | – | – | – | – | – | > 100 µM | > 100 µM | – |
| Cc1ccc(C2C3Cc4ccccc4C3=NN2c2ccc(S(=O)(=O)NC(=O)Nc3ccccc3)cc2)cc1 (stereo not given) | 14.1 µM | 27.5 µM | 14.2 µM | 27.2 µM | 19.6 µM | 42.1 µM | 17 µM | 40.3 µM | 10.8 µM | 22.7 µM | 36.8 µM | > 100 µM | 11.2 µM | 23.2 µM | > 100 µM | 25.4 µM |
| COC(=O)[C@H](CCCCNC(=O)OCc1ccccc1)NC(=O)[C@@H](NC(=O)Nc1cc(C(F)(F)F)cc(C(F)(F)F)c1)C(C)C | > 10 µM | > 10 µM | > 10 µM | > 10 µM | > 10 µM | > 10 µM | > 10 µM | > 10 µM | > 10 µM | > 10 µM | > 10 µM | > 10 µM | > 10 µM | > 10 µM | > 10 µM | > 10 µM |
| CCOC(=O)c1cc2c(n1Cc1ccccc1OC)-c1oncc1CCC2 | 16.6 µM | > 100 µM | 5.27 µM | > 100 µM | 3.04 µM | > 100 µM | 3.67 µM | > 100 µM | 9.12 µM | > 100 µM | 2.46 µM | > 100 µM | 3.37 µM | > 100 µM | > 100 µM | 64.7 µM |
| Cc1ccc(NC2=CC(=O)C(=O)c3ccccc32)cc1 | 1.92 µM | 5.33 µM | 1.53 µM | 2.91 µM | 2.77 µM | > 100 µM | 1.9 µM | 3.79 µM | 2.57 µM | 15.8 µM | 3.68 µM | 18.1 µM | 1.73 µM | 3.23 µM | 4.96 µM | 2.09 µM |
| Cc1cc(OCc2nn(CN3CCN(C)CC3)c(=S)n2/N=C/c2ccc(F)cc2)ccc1Cl | 20.1 µM | 34.3 µM | 20.7 µM | 40.7 µM | 17.4 µM | 40 µM | 17.9 µM | 33.1 µM | 18.5 µM | 36 µM | 17 µM | 39.7 µM | 17.4 µM | 31.6 µM | 33.8 µM | 17.6 µM |
| Nc1nc(N)c(-c2ccc(Cl)c(Cl)c2)c(CP(Cl)(Cl)(Cl)Br)n1 | 6.63 µM | > 100 µM | 9.33 µM | > 100 µM | 4.07 µM | 31.6 µM | 6.62 µM | > 100 µM | 9.62 µM | > 100 µM | 34.1 µM | > 100 µM | 6.4 µM | 32.2 µM | > 100 µM | 31.9 µM |
